{"source": "patent US20150203812A1", "about": "“Inhibitors of Voltage Gated Ion Channels” (priority 2014, published 2015)", "data": [{"target": "T1, human Hv1 channel (Homo sapiens, UniProt Q96D96)", "T1 construct": "expressed in transfected cells; host or cells: Xenopus oocytes (cRNA injection, pGEMHE vector)", "T1 sequence (Q96D96 1-273)": "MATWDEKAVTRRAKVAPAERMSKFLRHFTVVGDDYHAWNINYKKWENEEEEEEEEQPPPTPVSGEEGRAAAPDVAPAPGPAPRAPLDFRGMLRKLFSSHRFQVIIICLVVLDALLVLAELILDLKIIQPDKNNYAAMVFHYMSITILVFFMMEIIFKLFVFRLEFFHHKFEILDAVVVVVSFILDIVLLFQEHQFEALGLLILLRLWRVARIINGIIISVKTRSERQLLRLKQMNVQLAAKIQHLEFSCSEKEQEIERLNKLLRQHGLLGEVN", "assay": "Patch-clamp assay of Hv1 proton transport inhibition in Xenopus oocytes expressing human Hv1", "format": "cell-based", "details": "4 μM", "description": "(§1) Plasmids were linearized with either NheI or SphI restriction enzymes (New England Biolabs) before in vitro transcription. RNA synthesis was carried out with a T7 mMessage mMachine transcription kit (Ambion). […] The linearized plasmid was transcribed with SP6 RNA polymerase. cRNAs were injected in Xenopus oocytes (50 nl per cell, 0.3-1.5 μg/μl) 1-3 days before the electro-physiological measurements. Cells were kept at 18° C. in ND96 medium containing 96 mM NaCl, 2 mM KCl, 1.8 mM CaCl2, 1 mM MgCl2, 10 mM HEPES, 5 mM pyruvate, 100 μg/ml gentamycin (pH 7.2).\n(§2) The bath solution contained 100 mM 2-(N-morpholino)ethanesulphonic acid (MES), 30 mM tetraethylammonium (TEA) methanesulfonate, 5 mM TEA chloride, 5 mM ethyleneglycol-bis(2-ami-noethyl)-N,N,N0,N0-tetra-acetic acid (EGTA), adjusted to pH 6.0 with TEA hydroxide. For recordings carried out in the absence of pH gradient (pHi=pHo=6.0), the pipette solution had the same composition of the bath solution. Some of the measurements were performed in the presence of a pH gradient (pHi=6.0, pHo=7.5). In these cases the extracellular solution contained 100 mM 4-(2-hydroxyethyl)-1-piperazineethanesulfonic acid (HEPES), 40 mM TEA methanesulfonate, 5 mM TEA chloride, adjusted to pH 7.5 with TEA hydroxide. Native proton currents in BV-2, RAW264.7, and THP-1 were measured in whole-cell configuration with an intracellular solution containing: 90 mM TEA methanesulfonate, 100 mM MES, 2 mM MgCl2, 2 mM EGTA, adjusted to pH 6.0 with TEA hydroxide. The extracellular solution contained: 85 mM TEA methanesulfonate, 100 mM HEPES, 3 mM CaCl2, 1 mM EGTA, adjusted to pH 7.5 with TEA hydroxide. All measurements were performed at 22° C.±2° C. Pipettes had 2-4 M access resistance. Current traces were filtered at 1 kHz, sampled at 5 kHz and analyzed with Clampfit10.2 (Molecular Devices) and Origin8.1 (OriginLab).", "units": {"inhibition at 4 µM": "%"}, "values": [{"smiles": "N=C(N)Nc1nc2ccc([N+](=O)[O-])cc2[nH]1", "note": "[5-nitro-2-guanidinobenzimidazole]", "inhibition at 4 µM": "57 ± 10"}]}, {"target": "T1, human Hv1 channel", "assay": "Patch-clamp assay of Hv1 proton transport inhibition in Xenopus oocytes expressing human Hv1", "format": "cell-based", "details": "40 μM", "description": "as §1, §2", "units": {"inhibition at 40 µM": "%"}, "values": [{"smiles": "Nc1nnc(Nc2ccc(Cl)cc2)[nH]1", "note": "[N(3)-(4-chlorophenyl)-4H-1,2,4-triazole-3,5-diamine]", "inhibition at 40 µM": "28 ± 7"}]}, {"target": "T1, human Hv1 channel", "assay": "Patch-clamp assay of Hv1 proton transport inhibition in Xenopus oocytes expressing human Hv1", "format": "cell-based", "details": "200 μM", "description": "as §1, §2", "units": {"inhibition at 200 µM": "%", "Hv1 proton transport % inhibition": "%"}, "values": [{"smiles": "CN(C)C(=N)NC(=N)N", "note": "[1,1-dimethylbiguanide]", "inhibition at 200 µM": "6.8 ± 2.25"}, {"smiles": "N=C(N)Nc1nc2ccccc2s1", "note": "[1-(1,3-benzothiazol-2-yl)guanidine]", "inhibition at 200 µM": 81}, {"smiles": "N=C(N)Nc1nc2ccccc2o1", "note": "[1-(1,3-benzoxazol-2-yl)guanidine]", "inhibition at 200 µM": "1 ± 1"}, {"smiles": "COc1ccc(CCN2CCC(Nc3nc4ccccc4n3Cc3ccc(F)cc3)CC2)cc1", "note": "[1-[(4-fluorophenyl)methyl]-N-[1-[2-(4-methoxyphenyl)ethyl]-4-piperidylibenzoimidazol-2-amine]", "Hv1 proton transport % inhibition": "67 ± 6"}, {"smiles": "Nc1nc2ccccc2[nH]1", "note": "[2-aminobenzimidazole]", "inhibition at 200 µM": "29.8 ± 2.5"}, {"smiles": "Nc1ncc[nH]1", "note": "[2-aminoimidazole]", "inhibition at 200 µM": "21.2 ± 5.1"}, {"smiles": "Nc1ncccn1", "note": "[2-aminopyrimidine]", "inhibition at 200 µM": "2 ± 1"}, {"smiles": "Cc1nc(NC(=N)N)nc2ccccc12", "note": "[2-guanidino-4-methylquinazoline]", "inhibition at 200 µM": "31.7 ± 0.7"}, {"smiles": "N=C(N)Nc1nc2ccccc2[nH]1", "note": "[2-guanidinobenzimidazole]", "inhibition at 200 µM": "82.6 ± 2.25"}, {"smiles": "NC(N)=Nc1nc(CSCCC(N)=NS(N)(=O)=O)cs1", "note": "[3-([2-(diaminomethyleneamino)thiazol-4-yllmethylthio)-N′-sulfamoylpropanimidamide]", "Hv1 proton transport % inhibition": "21.5 ± 2.7"}, {"smiles": "CC(=O)N(C(=N)NC(=N)N)c1ccccc1", "note": "[N-(guanidino-iminomethyl)-N-phenylacetamide]", "inhibition at 200 µM": "0.5 ± 1"}, {"smiles": "N=C(N)NCCCCN", "note": "[agmatine]", "inhibition at 200 µM": "18.5 ± 1.5"}, {"smiles": "N=C(N)NN", "note": "[aminoguanidine, amino-guanidine]", "inhibition at 200 µM": "4.3 ± 2.3"}, {"smiles": "CCOC(=O)c1sc(NC(=N)N)nc1C", "note": "[ethyl 2-[[amino(imino)methyl]amino]-4-methyl-1,3-thiazole-5-carboxylate]", "inhibition at 200 µM": 31}, {"smiles": "CCOC(=O)c1nc(NC(=N)N)sc1C", "note": "[ethyl 2-[[amino(imino)methyl]amino]-5-methyl-1,3-thiazole-4-carboxylate]", "inhibition at 200 µM": "39.4 ± 3.4"}, {"smiles": "CCOC(=O)Cc1sc(NC(=N)N)nc1C", "note": "[ethyl (2-[[amino(imino)methyl]amino1-4-methyl-1,3-thiazol-5-yl)acetate]", "Hv1 proton transport % inhibition": "68.2 ± 2.2"}, {"smiles": "CC(C)OC(=O)CCCCC(=NNC(=N)N)c1ccccc1", "note": "[isopropyl 6-(guanidinoimino)-6-phenylhexanoate]", "inhibition at 200 µM": "73 ± 3"}]}, {"target": "T1, human Hv1 channel", "assay": "Patch-clamp assay of Hv1 proton transport inhibition in Xenopus oocytes expressing human Hv1", "format": "cell-based", "details": "600 μM", "description": "as §1, §2", "units": {"Hv1 proton transport % inhibition": "%"}, "values": [{"smiles": "CN1CC(=O)NC1=N", "note": "[Creatinine, reference compound]", "Hv1 proton transport % inhibition": 0}]}]}
